Reference: US8614208B2, “Fused heterocyclic ring derivative and use thereof” (Takeda Pharmaceutical Company Limited, priority 2009, dated 2013)

Biological target: T1, Smo (Mus musculus, UniProt P56726)
T1 construct: endogenous in cells; host or cells: NIH-3T3 cells stably carrying the Gli reporter plasmid
Assay: Gli reporter luciferase assay in NIH-3T3/Gli reporter cells stimulated with mouse Shh-N end fragment
Format: cell-based
Conditions: NIH3T3; 1 μM compound; NIH-3T3/Gli reporter cells with mouse Shh-N culture supernatant, 48 hr; luciferase activity, control without compound as 100; read-out: inhibitory rate (%) at 1 μM
Description: Gli reporter plasmid was constructed by inserting 8×Gli-binding site and chicken δ-crystalline promoter into the upstream of luc+ of pGL3 (Promega).
prepared in reference to the base sequence described in GenBank accession No.; X02187, and chicken genome DNA (Clontech) as a template. PCR reaction was performed using Pfu Turbo (Stratagene) and following the attached protocol. The obtained 108 bp fragment was digested with restriction enzymes BglII and HindIII, and inserted into BglII-HindIII site of pGL3 to give plasmid pGL3/δ-cry promoter.
As 8×Gli-binding site, a sequence containing eight 9-bp Gli bound consensus sequences (GACCACCCA) described in Yoon et al., J. Biol. Chem., vol. 273, pages 3496-3501 (1998) was prepared from synthetic DNA. That is, two synthetic DNAs,
were heat treated at 95° C. for 2 minutes, and incubated at 37° C. for 1 hr for annealing to give a double stranded DNA of the above-mentioned two synthetic DNAs. The obtained double stranded DNA was digested with restriction enzymes BglII and KpnI, and the obtained DNA fragment was inserted into BglII-KpnI site of pGL3/δ-cry promoter to construct plasmid pGL3/δ-cry promoter, 8×Gli binding site, i.e., Gli reporter plasmid.
HEK293 cells were grown in D-MEM medium (Invitrogen) containing 10% fetal bovine serum in a 10 cm dish and pcDNA3.1/mShh-N was introduced into the cells using FuGENE6 (Roche Applied Science). Thereafter, the HEK293 cells were cultured in a carbon dioxide gas incubator at 37° C. for 24 hours, and the medium was exchanged with D-MEM medium (Invitrogen) containing 2% fetal bovine serum. After culturing for 48 hr, a culture supernatant containing recombinant type mouse Shh-N end fragment was obtained by filtration using a filter ([…]).
Using D-MEM (Invitrogen) containing 10% fetal bovine serum, expression plasmid pcDNA3.1 and Gli reporter plasmid (pGL3/δ-cry promoter, 8×Gli binding site) produced by the method of Experimental Example 1 were introduced into NIH-3T3 cells grown in a 10 cm dish by the use of FuGENE6 (Roche Applied Science).
After culture for 24 hr, the cells were recovered, suspended in D-MEM medium containing 10% fetal bovine serum and supplemented with Geneticin (Life Technologies Oriental, Inc.) to a final concentration of 500 μg/ml, diluted to 10^4 cells/ml, plated on a 96 well plate, and cultured in a carbon dioxide gas incubator at 37° C. to give Geneticin resistant transformed cell line.
The obtained transformed cell line was cultured in a 96 well plate, mouse Shh-N end fragment obtained in Experimental Example 3 was added, and NIH-3T3/Gli reporter cell, which is a cell line capable of induction of luciferase expression, was selected.
NIH-3T3/Gli reporter cells cultured in D-MEM (Invitrogen) containing 10% fetal bovine serum were plated in a 96 well white plate at 1×10^4 cells/well, and cultured overnight in a carbon dioxide gas incubator at 37° C. The medium was removed, a compound (50 μl) and culture supernatant of mouse Shh-N end fragment-expressing HEK293 (D-MEM medium containing 2% fetal bovine serum, 50 μl) were added, and the cells were cultured for 48 hr in a carbon dioxide gas incubator at 37° C. Bright-Glo (Promega, 50 μl) was added, and the mixture was stirred, after which luciferase activity was measured by EnVision (PerkinElmer). The inhibition rate was calculated based on the luciferase activity of the control without addition of the compound as 100.

T1 sequence (P56726 33-793): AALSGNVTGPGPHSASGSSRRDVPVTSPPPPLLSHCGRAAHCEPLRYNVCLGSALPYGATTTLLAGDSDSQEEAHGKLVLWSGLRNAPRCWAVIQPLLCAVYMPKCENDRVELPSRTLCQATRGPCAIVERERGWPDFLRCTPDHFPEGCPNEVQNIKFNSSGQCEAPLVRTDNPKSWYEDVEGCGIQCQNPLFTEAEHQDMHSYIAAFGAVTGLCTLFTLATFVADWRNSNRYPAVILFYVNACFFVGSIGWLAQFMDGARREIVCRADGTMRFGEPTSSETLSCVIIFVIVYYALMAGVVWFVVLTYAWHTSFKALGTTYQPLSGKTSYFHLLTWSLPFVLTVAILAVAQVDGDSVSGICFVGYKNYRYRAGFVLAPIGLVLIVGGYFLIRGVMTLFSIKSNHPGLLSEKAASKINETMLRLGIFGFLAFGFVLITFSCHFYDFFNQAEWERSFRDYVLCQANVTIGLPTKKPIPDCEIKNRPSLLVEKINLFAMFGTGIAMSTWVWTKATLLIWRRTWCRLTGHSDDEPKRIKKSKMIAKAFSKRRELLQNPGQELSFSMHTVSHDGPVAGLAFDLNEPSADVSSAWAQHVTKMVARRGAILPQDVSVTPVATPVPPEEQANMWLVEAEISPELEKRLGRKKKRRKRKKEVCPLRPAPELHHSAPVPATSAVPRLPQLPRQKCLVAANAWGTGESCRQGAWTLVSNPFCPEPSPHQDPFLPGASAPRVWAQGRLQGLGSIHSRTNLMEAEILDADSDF

Structure (SMILES)	inhibition at 1 µM [%]
Cc1nc2c(c(OC(C)C)c(C(=O)NC3CCN(C(=O)CO)CC3)n2C)c(=O)n1CC(=O)c1ccccc1 [Example 3, N-[1-(hydroxyacetyl)piperidin-4-yl]-2,7-dimethyl-5-(1-methylethoxy)-4-oxo-3-(2-oxo-2-phenylethyl)-4,7-dihydro-3H-pyrrolo[2,3-d]pyrimidine-6-carboxamide]	93
Cc1nc2c(c(OCC(F)(F)F)c(C(=O)NC3CCN(C(=O)CO)CC3)n2C)c(=O)n1Cc1ccc(F)cc1 [Example 5, 3-(4-fluorobenzyl)-N-[1-(hydroxyacetyl)piperidin-4-yl]-2,7-dimethyl-4-oxo-5-(2,2,2-trifluoroethoxy)-4,7-dihydro-3H-pyrrolo[2,3-d]pyrimidine-6-carboxamide]	100
